# Data as given in patent US9433621B2, “Substituted pyridine and pyrimidine derivatives and their use in treating viral infections” (Merck Sharp & Dohme Corp., priority 2010, dated 2016).
# Test system: HCV replicon
# Assay: Cell-Based HCV Replicon Assay
# Settings: Hepatitis C virus, 72 h; Table IV; replicon cells, day 3, real time PCR; EC90 = concentration for ΔCT=3.2 over baseline; read-out: EC90
# Description: Cell-Based HCV Replicon Assay
# To measure cell-based anti-HCV activity of the compounds of the present invention, replicon cells were seeded at 5000 cells/well in 96-well collagen I-coated Nunc plates in the presence of the compound of the invention. Various concentrations of a compound of the invention, typically in 10 serial 2-fold dilutions, were added to the assay mixture, the starting concentration of the compound ranging from 25 μM to 1 μM. The final concentration of DMSO was 0.5%, fetal bovine serum was 10%, in the assay media. Cells were harvested on day 3 by the addition of 1× cell lysis buffer (Ambion cat #8721). The replicon RNA level was measured using real time PCR (Taqman assay). The amplicon was located in 5B. The PCR primers were: 5B.2F, ATGGACAGGCGCCCTGA; 5B.2R, […]; the probe sequence was FAM-labeled CACGCCATGCGCTGCGG. GAPDH RNA was used as endogenous control and was amplified in the same reaction as NS5B (multiplex PCR) using primers and VIC-labeled probe recommended by the manufacturer (PE Applied Biosystem). The real-time RT-PCR reactions were run on ABI PRISM® 7900HT Sequence Detection System using the following program: 48′C for 30 min, 95′C for 10 min, 40 cycles of 95′C for 15 sec, 60′C for 1 min. The ΔCT values (CT5B-CTGAPDH) were plotted against the concentration of test compound and fitted to the sigmoid dose-response model using Graph Pad PRISM® software. EC50 was defined as the concentration of inhibitor necessary to achieve ΔCT=1 over the projected baseline; EC90 the concentration necessary to achieve ΔCT=3.2 over the baseline. Alternatively, to quantitate the absolute amount of replicon RNA, a standard curve was established by including serially diluted T7 transcripts of replicon RNA in the Taqman assay. All Taqman reagents were from PE Applied Biosystems. Such an assay procedure was described in detail in e.g. Malcolm et al., Antimicrobial Agents and Chemotherapy 50: 1013-1020 (2006).
# HCV Replicon assay data for compounds of the invention that were tested were obtained using the above method.
row,Compound,EC90
1,Cc1nc(NCc2c(F)cccc2F)nc(N[C@@H]2C[C@H](C(C)(C)O)[C@@H](O)[C@H]2O)c1-c1nc2c(N)nccc2s1 [Example 4443],0.055 µM
2,Cc1nc(NC[C@H]2C[C@H](c3ccccc3)C2)nc(N[C@@H]2C[C@H](CO)[C@@H](O)[C@H]2O)c1-c1nc2cnccc2s1 [Example 4513],0.016 µM
3,Cc1nc(N[C@H](C)c2ccc(OC(F)(F)F)cc2)nc(N[C@@H]2C[C@H](CO)[C@@H](O)[C@H]2O)c1-c1nc2c(N)nccc2s1 [Example 4413],0.121 µM
4,Cc1nc(NCC2CC2)nc(N[C@@H]2C[C@H](CS(=O)(=O)c3ccccc3)[C@@H](O)[C@H]2O)c1-c1nc2c(C3CC3)nccc2s1 [Example 3744],0.044 µM

# Same assay, conditions: Hepatitis C virus, 72 h; Table V, cells printed as numeric bound instead of code; replicon cells, day 3, real time PCR; read-out: EC90 (uM) range
row,Compound,EC90
1,C[C@@H](Nc1ncc(-c2nc3c(C4CC4)nccc3s2)c(N[C@@H]2C[C@H](CS(C)(=O)=O)[C@@H](O)[C@H]2O)n1)C1CC1 [Example 4917],> 0.2 µM

# Same assay, conditions: Hepatitis C virus, 72 h; Table V, class codes; replicon cells, day 3, real time PCR; EC90 = concentration for ΔCT=3.2 over baseline; read-out: EC90 (uM) range
row,Compound,EC90
1,Cc1nc(NCC2CC2)nc(N[C@@H]2C[C@H](C(=O)Nc3ccccc3)[C@@H](O)[C@H]2O)c1-c1nc2c(C3CC3)nccc2s1 [Example 4950],< 0.5 µM
2,Cc1nc(N[C@H](C)c2ccc(OC(F)(F)F)cc2)nc(N[C@@H]2C[C@H](C(=O)Nc3ccccc3)[C@@H](O)[C@H]2O)c1-c1nc2c(C3CC3)nccc2s1 [Example 4951],0.5 to 5 µM

# Same assay, conditions: Hepatitis C virus; HCV Replicon assay, EC90 given as numeric bound, Table VI; read-out: EC90
row,Compound,EC90
1,Cc1nc(NCC2(N(C)C)CCOCC2)nc(N[C@@H]2C[C@H](C(C)(C)O)[C@@H](O)[C@H]2O)c1-c1nc2c(C)nccc2s1 [Example 5282],> 1 µM

# Same assay, conditions: Hepatitis C virus; HCV Replicon assay, EC90 range, Table VI; read-out: EC90
row,Compound,EC90
1,Cc1nc(NCCC2(O)CCCC2)nc(N[C@@H]2C[C@H](CS(=O)(=O)c3cc(F)cc(F)c3)[C@@H](O)[C@H]2O)c1-c1nc2c(C)nccc2s1 [Example 5120],< 0.5 µM
2,COCCNc1nc(C)c(-c2nc3c(C)nccc3s2)c(N[C@@H]2C[C@H]([C@H](O)C(C)C)[C@@H](O)[C@H]2O)n1 [Example 5105],< 0.5 µM
3,Cc1nc(NCc2cn(C)cn2)nc(N[C@@H]2C[C@H](C(C)(C)O)[C@@H](O)[C@H]2O)c1-c1nc2c(C)nccc2s1 [Example 5252],< 0.5 µM
4,COCC(O)(COC)[C@H]1C[C@@H](Nc2nc(NCc3c(F)cc(F)cc3F)nc(C)c2-c2nc3c(C)nccc3s2)[C@H](O)[C@@H]1O [Example 5247],< 0.5 µM
5,COCCNc1nc(C)c(-c2nc3c(C)nccc3s2)c(N[C@@H]2C[C@H](CC(C)(C)O)[C@@H](O)[C@H]2O)n1 [Example 5307],< 0.5 µM
6,Cc1nc(N[C@H](C)CSC(C)(C)C)nc(N[C@@H]2C[C@H](C(C)(C)O)[C@@H](O)[C@H]2O)c1-c1nc2c(C)nccc2s1 [Example 5254],< 0.5 µM
7,CO[C@@H]1[C@H](OC)[C@@H](C(C)(C)O)C[C@H]1Nc1nc(NCc2c(F)cc(F)cc2F)nc(C)c1-c1nc2c(C)nccc2s1 [Example 5266],< 0.5 µM
8,CCO[C@@H](CNc1nc(C)c(-c2nc3c(C4CC4)nccc3s2)c(N[C@@H]2C[C@H](CO)[C@@H](O)[C@H]2O)n1)C(F)(F)F [Example 5234],< 0.5 µM
9,Cc1nc(NCc2cc(F)c(F)cc2F)nc(N[C@@H]2C[C@H]([C@H](O)C(C)C)[C@@H](O)[C@H]2O)c1-c1nc2c(C)nccc2s1 [Example 5106],< 0.5 µM
10,Cc1nc(N)nc(N[C@H]2C=C[C@@H](CO)C2)c1-c1nc2c(C)nccc2s1 [Example 5167],< 0.5 µM
11,Cc1nc(NCC(C)(F)F)nc(N[C@@H]2C[C@H](C(C)(C)O)[C@@H](O)[C@H]2O)c1-c1nc2c(C)nccc2s1 [Example 5221],< 0.5 µM
12,Cc1nc(NC2CCC2)nc(N[C@@H]2C[C@H](C(C)(C)NS(C)(=O)=O)[C@@H](O)[C@H]2O)c1-c1nc2c(C)nccc2s1 [Example 5049],< 0.5 µM
13,Cc1nc(NCC2(O)CCCC2)nc(NC2(CO)CCCC2)c1-c1nc2c(C3CC3)nccc2s1 [Example 5127],< 0.5 µM
14,Cc1nc(NCCC2CC2)nc(N[C@@H]2C[C@H](C(F)F)[C@@H](O)[C@H]2O)c1-c1nc2c(C3CC3)nccc2s1 [Example 5192],< 0.5 µM
15,COC(=O)NC(C)(C)[C@H]1C[C@@H](Nc2nc(NCC3CC3)nc(C)c2-c2nc3c(C)nccc3s2)[C@H](O)[C@@H]1O [Example 5046],< 0.5 µM
16,Cc1nc(NCCS(C)(=O)=O)nc(N[C@@H]2C[C@H](C(C)(C)O)[C@@H](O)[C@H]2O)c1-c1nc2c(C)nccc2s1 [Example 5249],0.5 to 5 µM
17,Cc1nc(NCC2CC3(CC3)C2)nc(N[C@@H]2C[C@H](CO)[C@@H](O)[C@H]2O)c1-c1nc2c(C3CC3)nccc2s1 [Example 5301],< 0.5 µM
18,CCS(=O)(=O)C(C)(C)[C@H]1C[C@@H](Nc2nc(NCC3CC3)nc(C)c2-c2nc3c(C)nccc3s2)[C@H](O)[C@@H]1O [Example 5057],< 0.5 µM
19,CO[C@H]1C[C@H](CNc2nc(C)c(-c3nc4c(C5CC5)nccc4s3)c(N[C@@H]3C[C@H](CO)[C@@H](O)[C@H]3O)n2)C1 [Example 5296],< 0.5 µM
20,CO[C@@]1(CNc2nc(C)c(-c3nc4c(C)nccc4s3)c(N[C@@H]3C[C@H](C(C)(C)O)[C@@H](O)[C@H]3O)n2)CCOC1 [Example 5102],< 0.5 µM

row,Compound,EC90
1,Cc1nc(N)nc(N[C@@H]2C[C@H](C(F)F)[C@@H](O)[C@H]2O)c1-c1nc2c(C3CC3)nccc2s1 [Example 5190],< 0.5 µM
2,CO[C@H](C)CNc1nc(C)c(-c2nc3c(C)nccc3s2)c(N[C@@H]2C[C@H](CS(=O)(=O)c3ccc(F)c(C)c3)[C@@H](O)[C@H]2O)n1 [Example 5012],< 0.5 µM
3,CNS(=O)(=O)C[C@H]1C[C@@H](Nc2nc(NC3CC3)nc(C)c2-c2nc3c(C)nc(C)cc3s2)[C@H](O)[C@@H]1O [Example 5027],< 0.5 µM
4,CSCC[C@@H](CO)Nc1nc(C)c(-c2nc3c(C)nccc3s2)c(N[C@@H]2C[C@H](C(C)(C)O)[C@@H](O)[C@H]2O)n1 [Example 5251],< 0.5 µM
5,Cc1nc(NCCS(=O)(=O)NC(C)(C)C)nc(N[C@@H]2C[C@H](C(C)(C)O)[C@@H](O)[C@H]2O)c1-c1nc2c(C)nccc2s1 [Example 5289],< 0.5 µM
6,Cc1nc(N)nc(N[C@@H]2C[C@H](C(C)(F)F)[C@@H](O)[C@H]2O)c1-c1nc2c(C3CC3)nccc2s1 [Example 5188],< 0.5 µM
7,Cc1nc(NC2CCC2)nc(N[C@@H]2C[C@H](C(C)(C)S(C)(=O)=O)[C@@H](O)[C@H]2O)c1-c1nc2c(C3CC3)nccc2s1 [Example 5064],< 0.5 µM
8,Cc1nc(N[C@H](C)c2c(F)c(F)c(C)c(F)c2F)nc(N[C@H]2C=C[C@@H](CO)C2)c1-c1nc2c(C)nccc2s1 [Example 5169],< 0.5 µM
9,CCNC(=S)N[C@H]1C[C@@H](Nc2nc(N[C@H](C)C3CC3)nc(C)c2-c2nc3c(C4CC4)nccc3s2)[C@H](O)[C@@H]1O [Example 5024],< 0.5 µM
10,Cc1nc(NCC2CCC2)nc(N[C@@H]2C[C@H](NC(=O)NC(C)(C)C)[C@@H](O)[C@H]2O)c1-c1nc2c(C3CC3)nccc2s1 [Example 5100],< 0.5 µM
11,Cc1nc(NCC(F)(F)C(F)(F)F)nc(N[C@@H]2C[C@H](CS(C)(=O)=O)[C@@H](O)[C@H]2O)c1-c1nc2c(C3CC3)nccc2s1 [Example 5223],< 0.5 µM
12,CCO[C@H]1C[C@H](CNc2nc(C)c(-c3nc4c(C)nccc4s3)c(N[C@@H]3C[C@H](CC(C)(C)O)[C@@H](O)[C@H]3O)n2)C1 [Example 5306],< 0.5 µM
13,Cc1nc(NC2(C)CCC2)nc(N[C@@H]2C[C@H](C(C)(C)O)[C@@H](O)[C@H]2O)c1-c1nc2c(C)nccc2s1 [Example 5153],< 0.5 µM
14,CO[C@@H]1CCCC[C@H]1Nc1nc(C)c(-c2nc3c(C4CC4)nccc3s2)c(N[C@@H]2C[C@H](CO)[C@@H](O)[C@H]2O)n1 [Example 5141],< 0.5 µM
15,COCCNc1nc(C)c(-c2nc3c(C)nccc3s2)c(N[C@@H]2C[C@H](C(C)(C)NC(=O)OC)[C@@H](O)[C@H]2O)n1 [Example 5042],< 0.5 µM
16,CCNC(=O)N[C@H]1C[C@@H](Nc2nc(N[C@H](C)C3CC3)nc(C)c2-c2nc3c(C4CC4)nccc3s2)[C@H](O)[C@@H]1O [Example 5022],< 0.5 µM
17,CCO[C@@H](CNc1nc(C)c(-c2nc3c(C)nccc3s2)c(N[C@@H]2C[C@H](C(C)(C)O)[C@@H](O)[C@H]2O)n1)C(F)(F)F [Example 5235],< 0.5 µM
18,Cc1nc(NCc2c(F)cccc2F)nc(NC2(C)CCC2)c1-c1nc2c(C)nccc2s1 [Example 5216],< 0.5 µM
19,Cc1nc(NCC2CC2)nc(NC2(CO)CCCCC2)c1-c1nc2c(C)nccc2s1 [Example 5199],< 0.5 µM
20,Cc1nc(NC(C)(C)C)nc(N[C@@H]2C[C@H](NC(=O)N(C)C)[C@@H](O)[C@H]2O)c1-c1nc2c(C3CC3)nccc2s1 [Example 5097],< 0.5 µM
